Results reported in patent publication US9040524B2, “Antifungal 5,6-dihydro-4H-pyrrolo[1,2-a][1,4]-benzodiazepines and 6H-pyrrolo[1,2-a][1,4]benzodiazepines substituted with bicycle benzene derivatives” (JANSSEN PHARMACEUTICA NV, priority 2010, dated 2015).

Tests used:
Assay type in all cases: cell-based
Microsporum canis = assay: Antifungal activity in vitro, resazurin growth inhibition screen: Microsporum canis; conditions: Microsporum canis B68128
Description: (§1) The standard susceptibility screen was performed in 96-well plates (U-bottom, Greiner Bio-One). Serial dilutions (2-fold or 4-fold) of 20 mM compound stock solutions were made in 100% DMSO, followed by an intermediate dilution step in water. These serial dilutions (10 μl) were then spotted onto test-plates that could be stored in the dark at 4° C. for a maximum period of 2 weeks. An adequate broad dose-range was included with 64 μM as the highest in-test concentration. […] The different fungal species/isolates (Table 3a) were cryopreserved and 1/1000 diluted in medium just prior to use. A standard inoculum of 200 μl containing 10^3 colony-forming unit (cfu) was then added to each well. A positive control (100% growth=fungal culture without antifungal) and a negative control (0% growth=RPMI-MOPS medium) were included on each plate.

Trichophyton rubrum = assay: Antifungal activity in vitro, resazurin growth inhibition screen: Trichophyton rubrum; conditions: Trichophyton rubrum B68183
Description: as §1

Sporothrix schenkii = assay: Antifungal activity in vitro, resazurin growth inhibition screen: Sporothrix schenkii; conditions: Sporothrix schenkii B62482
Description: as §1

Aspergillus fumigatus = assay: Antifungal activity in vitro, resazurin growth inhibition screen: Aspergillus fumigatus; conditions: Aspergillus fumigatus B42928
Description: as §1

Candida parapsilosis = assay: Antifungal activity in vitro, resazurin growth inhibition screen: Candida parapsilosis; conditions: Candida parapsilosis B66126
Description: as §1

Cryptococcus neoformans = assay: Antifungal activity in vitro, resazurin growth inhibition screen: Cryptococcus neoformans; conditions: Cryptococcus neoformans B66663
Description: as §1

[1] = test system: Trichophyton mentagrophytes; assay: Antifungal activity in vitro, resazurin growth inhibition screen: Trichophyton mentagrophytes; conditions: Trichophyton mentagrophytes B70554
Description: as §1

Compound | Inf. B pIC50 (Microsporum canis) | Inf. C pIC50 (Trichophyton rubrum) | Inf. A pIC50 (Sporothrix schenkii) | Inf. E pIC50 (Aspergillus fumigatus) | Inf. D pIC50 (Candida parapsilosis) | Inf. F pIC50 (Cryptococcus neoformans) | Inf. G pIC50 [1]
Br.c1ccc2c(c1)CNC(c1ccc3c(c1)OCO3)c1cccn1-2 (stereo not drawn) [Compound 2, 4-(1,3-benzodioxol-5-yl)-5,6-dihydro-4H-pyrrolo[1,2-a][1,4]benzodiazepine .HBr] | 4.42 | 4.96 | <4.19 | <4.19 | <4.19 | <4.19 | 
Clc1cccc2c1CNC(c1ccc3c(c1)OCO3)c1cccn1-2 (stereo not drawn) [Compound 3, 4-(1,3-benzodioxol-5-yl)-7-chloro-5,6-dihydro-4H-pyrrolo[1,2-a][1,4]benzo-diazepine] | 4.91 | 4.47 | <4.19 | <4.19 | <4.19 | 4.30 | 4.71
Br.Clc1cccc2c1CNC(c1ccc3c(c1)OCO3)c1cccn1-2 (stereo not drawn) [Compound 4, 4-(1,3-benzodioxol-5-yl)-7-chloro-5,6-dihydro-4H-pyrrolo[1,2-a][1,4]benzo-diazepine .HBr] | 5.09 | 5.70 | <4.19 | <4.19 | <4.19 | 4.38 | 
Br.Clc1ccc2c(c1)CNC(c1ccc3c(c1)OCO3)c1cccn1-2 (stereo not drawn) [Compound 5, 4-(1,3-benzodioxol-5-yl)-8-chloro-5,6-dihydro-4H-pyrrolo[1,2-a][1,4]benzo-diazepine .HBr] | 5.11 | 5.05 | <4.19 | <4.19 | <4.19 | 4.42 | 
Br.Clc1ccc2c(c1)-n1cccc1C(c1ccc3c(c1)OCO3)NC2 (stereo not drawn) [Compound 6, 4-(1,3-benzodioxol-5-yl)-9-chloro-5,6-dihydro-4H-pyrrolo[1,2-a][1,4]benzo-diazepine .HBr] | 5.00 | 5.15 | 4.21 | <4.19 | <4.19 | 5.10 | 4.50
Br.Clc1cccc2c1-n1cccc1C(c1ccc3c(c1)OCO3)NC2 (stereo not drawn) [Compound 7, 4-(1,3-benzodioxol-5-yl)-10-chloro-5,6-dihydro-4H-pyrrolo[1,2-a][1,4]benzo-diazepine .HBr] | 5.30 | 5.40 | <4.19 | <4.19 | <4.19 | 4.64 | 4.47
Br.COc1cccc2c1CNC(c1ccc3c(c1)OCO3)c1cccn1-2 (stereo not drawn) [Compound 8, 4-(1,3-benzodioxol-5-yl)-5,6-dihydro-7-methoxy-4H-pyrrolo[1,2-a][1,4]benzo-diazepine .HBr] | 4.66 | 5.22 | <4.19 | <4.19 | <4.19 | <4.19 | <4.19
Clc1cccc2c1CN=C(c1ccc3c(c1)OCO3)c1cccn1-2 [Compound 10, 4-(1,3-benzodioxol-5-yl)-7-chloro-6H-pyrrolo[1,2-a][1,4]benzo-diazepine] | 5.00 | 5.70 | <4.19 | <4.19 | <4.19 | 4.48 | 5.30
Br.CCOc1cc2c(cc1C1NCc3c(Cl)cccc3-n3cccc31)CCC2 (stereo not drawn) [Compound 14, 7-chloro-4-(6-ethoxy-2,3-dihydro-1H-inden-5-yl)-5,6-dihydro-4H-pyrrolo[1,2-a]-[1,4]benzodiazepine .HBr] | 5.10 | 5.52 | <4.19 | <4.19 | <4.19 | 4.82 | 
Br.COc1cc2c(cc1C1NCc3c(Cl)cccc3-n3cccc31)CCCC2 (stereo not drawn) [Compound 15, 7-chloro-5,6-dihydro-4-(5,6,7,8-tetrahydro-3-methoxy-2-naphthalenyl)-4H-pyrrolo-[1,2-a][1,4]benzodiazepine .HBr] | <4.19 | 5.40 | <4.19 | <4.19 | <4.19 | <4.19 | <4.19
